Data as given in patent publication US10023565B2, “N,N′ substituted piperidinamine compounds, and preparation method and usage thereof” (Institute of Pharmacology and Toxicology Academy of …, priority 2013, dated 2018).

How the values were obtained:
Assay in all cases: Antitumor bioactivity evaluation, breast cancer cells (ATPlite)
BT/Lap^R1.0 = assay type: cell-based, human; conditions: Homo sapiens; test sample 5 μM, 72 hours; read-out: Inhibitory Rate % BT/Lap^R1.0
Protocol: (§1) Antitumor bioactivity evaluation of the compounds of Examples according to the method described below
(§2) Cells plating: a 100 mm culture dish with overgrown adherent cells was digested with 1 ml 0.25% trypsin (GIBCO) at 37° C. for 5 min, and the reaction was terminated with 2 ml culture medium (containing 10% FBS, GIBCO). The cells were scattered and collected, after counting, diluted to 1×10^5 cells/ml, and seeded into a 96-well plate at 50 μl/well, 5000 cells/well, excluding the peripheral circle of wells in which no cell was added, but PBS was added, 60 wells in total, and then incubated at 37° C. for 24 hours for adhering.
(§3) Addition of the compound and lapatinib: the test sample was diluted to a final concentration of 5 μM, and the culture medium with the corresponding compound solvent concentration was filled in the control well, the compound solvent concentration was kept consistent in each well, 5 parellel wells were set for each concentration, 25 μl each well, 25 μl culture medium (in combined group, 25 μl lapatinib was added till a final concentration of 1 μM) supplemented, followed by incubation at 37° C. for 72 hours.
(§4) Test after incubation at 37° C. for 72 hours: 50 μL of ATPlite kit substrate solution was added in each well, and vibrated for 3 min, followed by placing aside in darkness for 10 min, and then supernatant 100 μl/well was taken and placed on aluminescence test plate; the luminescence test plate that has been fully incubated was placed in a luminescence test instrument, to read luminescence value.
(§5) 1. Cell survival rate (%)=Experimental group RLU/control group RLU×100%. The experimental data were subjected to data analysis and processing by utilizing GraphPad software.

SK/Lap^R1.0 = assay type: cell-based; conditions: Homo sapiens; test sample 5 μM, 72 hours; read-out: Inhibitory Rate % SKLap^R1.0
Protocol: as §1, §2, §3, §4, §5

MDA-MB-361 = assay type: cell-based; conditions: Homo sapiens, test sample 5 μM, 72 hours, read-out: Inhibitory Rate % MDA-MB-361
Protocol: as §1, §2, §3, §4, §5

MDA-MB-453 = assay type: cell-based; conditions: Homo sapiens, test sample 5 μM, 72 hours, read-out: Inhibitory Rate % MDA-MB-453
Protocol: as §1, §2, §3, §4, §5

BT474 = assay type: cell-based; conditions: Homo sapiens, BT-474; test sample 5 μM, 72 hours; read-out: Inhibitory Rate % BT474
Protocol: as §1, §2, §3, §4, §5

SK-BR3 = assay type: cell-based; conditions: Homo sapiens, SK-BR-3; test sample 5 μM, 72 hours; read-out: Inhibitory Rate % SK-BR3
Protocol: as §1, §2, §3, §4, §5

Row | Structure (SMILES) | inhibition at 5 µM (BT/Lap^R1.0) [%] | inhibition at 5 µM (SK/Lap^R1.0) [%] | inhibition at 5 µM (MDA-MB-361) [%] | inhibition at 5 µM (MDA-MB-453) [%] | inhibition at 5 µM (BT474) [%] | inhibition at 5 µM (SK-BR3) [%]
1 | CSc1nccc(N2CCC(N(C)Cc3ccc(Cl)c(Cl)c3)CC2)n1 [Example 38, N-methyl-N-(3,4-dichlorobenzyl)-N-[1-(2-methylthiopyrimidin-4-yl)piperidin-4-yl]amine] | 29.9 | 12.9 | 29.5 | 60 | 39.5 | 30.1
2 | CSc1nccc(N2CCC(N(C)Cc3cccc(Cl)c3)CC2)n1 [Example 39, N-methyl-N-(3-chlorobenzyl)-N-[1-(2-methylthiopyrimidin-4-yl)piperidin-4-yl]amine] | 25.1 | 24.4 | 39.1 | 65.7 | 35.1 | 26.4
3 | CSc1nccc(N2CCC(N(C)Cc3ccccc3C#N)CC2)n1 [Example 41, N-methyl-N-(2-cyanobenzyl)-N-[1-(2-methylthiopyrimidin-4-yl)piperidin-4-yl]amine] | 65.8 | 42 | 55.7 | 66.6 | 69.2 | 38.9
4 | CSc1nccc(N2CCC(N(C)Cc3ccc(C)cc3)CC2)n1 [Example 42, N-methyl-N-(4-methylbenzyl)-N-[1-(2-methylthiopyrimidin-4-yl)piperidin-4-yl]amine] | 28.6 | 35.8 | 45.1 | 60.8 | 36.7 | 41.4
5 | COc1nccc(N2CCC(N(C)Cc3ccccc3Cl)CC2)n1 [Example 43, N-methyl-N-(2-chlorobenzyl)-N-[1-(2-methoxypyrimidin-4-yl)piperidin-4-yl]amine] | 56.9 | 29.4 | 45.7 | 69.3 | 61 | 19.3
6 | CSc1nccc(N2CCC(N(C)Cc3cc(Cl)ccc3Cl)CC2)n1 [Example 44, N-methyl-N-(2,5-dichlorobenzyl)-N-[1-(2-methylthiopyrimidin-4-yl)piperidin-4-yl]amine] | 63.9 | 35.2 | 50.4 | 66.2 | 67.1 | 32.6
7 | CSc1nccc(N2CCC(N(C)Cc3cccc(F)c3)CC2)n1 [Example 45, N-methyl-N-(3-fluorobenzyl)-N-[1-(2-methylthiopyrimidin-4-yl)piperidin-4-yl]amine] | 17.5 | 34.2 | 36.2 | 45.3 | 21.3 | 22.2
8 | CNC1CCN(c2nccc(OC)n2)CC1 [Example 46, N-methyl-N-[1-(4-methoxypyrimidin-2-yl)piperidin-4-yl]amine] | 70 | 71 | 53.2 | 79.2 | 73.1 | 85.9
9 | COc1nccc(N2CCC(N(C)Cc3ccc(C#N)cc3)CC2)n1 [Example 48, N-methyl-N-(4-cyanobenzyl)-N-[1-(2-methoxypyrimidin-4-yl)piperidin-4-yl]amine] | 72.7 | 74.3 | 53.3 | 79.5 | 71.6 | 86.5
10 | COc1nccc(N2CCC(N(C)Cc3ccccc3C#N)CC2)n1 [Example 50, N-methyl-N-(2-cyanobenzyl)-N-[1-(2-methoxypyrimidin-4-yl)piperidin-4-yl]amine] | 22.7 | 11.7 | 22 | 50.6 | 27.5 | 24.7
11 | COc1nccc(N2CCC(N(C)Cc3ccc(C)cc3)CC2)n1 [Example 51, N-methyl-N-(4-methylbenzyl)-N-[1-(2-methoxypyrimidin-4-yl)piperidin-4-yl]amine] | 65.2 | 22.4 | 45.7 | 70.5 | 65.6 | 34.5
